Source: patent US10744119B1, “Inhibitors of the malarial GST” (University of Puerto Rico, priority 2014, dated 2020)
pEC50: −log10 of the molar value. Where two headings read alike, the source gives them in different places.

What was measured:
P. berghei blood stages [1] = conditions: read-out: EC50, published results; published value; cited from earlier work
P. berghei blood stages [2] = assay: Plasmodium berghei in vitro drug luminescence (ITDL) assay; format: cell-based; conditions: read-out: EC50, growth inhibition of P. berghei blood stages
Description: The compounds were received as 10 mM stocks dissolved in 100% DMSO. These stocks were stored at −20° C. The DMSO stock compounds were diluted in complete culture medium (RPMI1640 medium supplemented with 20% FBS from Gibco® heat-inactivated and Neomycin stock solution of 10,000 IU/mL from Sigma-Aldrich®) for use in the Plasmodium berghei in vitro drug luminescence assay. For initial testing, the compounds were used at the following concentration: 0.01 μM, 0.1 μM, 1 μM and 10 μM; in triplicate point to determine the inhibition curve for each compound.
This assay measures the in vitro development of P. berghei ring stage into mature schizonts in the presence of inhibitors/drugs. The Swiss-CD1 female mice were infected with the GFP-luc parasite line. The GFP-luc parasite line allows determination of the luciferase activity in the cultured mature schizonts, which is directly proportional to the number of schizonts. When the parasitemia reaches 1-3%, the RBCs were collected from the infected mice and used to perform the assay. The susceptibility of blood stages parasites was determined in the presence of standard GST inhibitors and the TCAMS compounds identified from the VLS. […] The standard GST inhibitors were weighed and dissolved in 100% DMSO to prepare the stock solution. Dilutions of the standard GST inhibitors were freshly prepared in complete culture medium (RPMI1640 medium supplemented with 20% FBS from Gibco® heat-inactivated and Neomycin stock solution of 10,000 IU/mL from Sigma-Aldrich®) for each assay. The dilutions of the inhibitors were added to the wells in triplicates, 50 μL per well. Chloroquine diphosphate salt from Sigma-Aldrich® was used as a control (at a concentration of 100 nM) for complete inhibition of blood stage development. Further, infected blood was collected from one mouse by cardiac puncture under anesthesia early in the morning (between 9:00-10:[…]). The blood was added to a 50 mL tube containing 5 mL complete culture medium supplemented with 300 μL heparin stock solution (25,000 U/mL). The blood was centrifuged for 8 min at 450×g and the supernatant was removed. The blood was resuspended in a complete culture medium comprising a concentration of 2% (v/v). In the next step, 50 μL of the blood suspension was added in each well containing the inhibitors dilutions. The 96-well black culture plates containing the infected blood solution were placed into a candle jar. The candle jar was carefully flushed with a gas mixture of 5% CO2, 5% O2, 90% N2 using a 0.22 μm filter unit connected to the gas hose for 2 minutes. The lid was tightly closed immediately after gassing. The infected blood suspension was incubated at 37° C. with continuous agitation (enough to keep the cells suspended) for 24 hours allowing the ring stages to develop into the mature schizonts. After the culture period, the schizonts were evaluated by microscopic examination of Diff Quick-stained thin blood smears. The 96-well plate was centrifuged at 1,000×g for 5 minutes. The supernatant was removed using a syringe needle on those sides of the wells without red blood cell after spinning. The luciferase activity was measured in cultured mature schizonts using the Luciferase Assay System Kit from Promega (Cat. No. E1500). The RBCs were lysed by adding 50 μL of 1× cell culture lysis reagent into each well. The plate was shaken for 5 minutes to assure complete lysis. Afterward, 50 μL of the luciferase assay reagent was added. The luminescence was measured using the SpectraMax® M3 Microplate Reader (Molecular Devices). […] The data was analyzed and used to generate standard in vitro inhibition curves, and EC50 values of each compound were calculated. Preliminary data analyses were performed using Microsoft Excel and the effective concentration (50% of the maximal inhibition; EC50 values) were calculated using GraphPad Prism software (Graph-Pad software, Inc., US, Mac Version 6).

P. berghei GST (pbGST) = P. berghei GST (pbGST) (Plasmodium berghei, UniProt A0A509AJX5); assay: Inhibition of GST activity (CDNB/GSH, 340 nm) in P. berghei protein extracts; format: biochemical; conditions: for inhibitory activity on pbGST: 1, 10 and 50 μM, duplicate (n=2), more marked effect at 50 μM
Description: Glutathione S-transferase Activity in Blood Stage Parasites: The parasite extracts were prepared as the method described in the Protein for Enzymatic Activity. The enzymatic activity was determined spectroscopically using the chromogenic substrate 1-chloro-2,4-dinitrobenzene (CDNB) from Sigma-Aldrich®. The GST activity was assayed at 25° C. in P. berghei protein extracts by monitoring the increase in absorbance at 340 nm on the basis of the extinction coefficient for the product S-(2,4-dinitrophenyl) glutathione (ε340 nm=9.6 mM^−1 cm^−1). The absorbance was measured in a 96-well plate (UV flat bottom Microtiter®, from Thermo Scientific) using the SpectraMax® M3 Microplate Reader (Molecular Devices). The parasite extract (0.65 mg/mL) and 1 mM CDNB were added to a 100 mM potassium phosphate (pH 6.5) buffer. The reaction was started by adding 1 mM GSH. To detect any residual GST activity associated with the parasite extract, blank reactions as controls (no GSH) were included. The Enzyme activity is reported as units (micromole of GSH/min)/mg of protein. This assay was standardized using the human placenta GST from Sigma-Aldrich® (Cat No. G8642) and used as positive control.
The compounds stock solutions were prepared in 100% DMSO. […] The half maximal inhibitory concentration (IC50) values were calculated using the non-linear regression function for sigmoidal dose-response (variable slope). Inhibition curves of pbGST was done in two independent experiments with one replicate each (n=2) whereas the inhibition curves of hGST was determined in three independent experiments in triplicate (n=9). […] GraphPad Prism software (Graph-Pad software, Inc., US, Mac Version 6) was used to make the graph and to perform the statistical analyses.
The GSK TCAMS compounds dilutions were prepared in DMSO and the final concentration of DMSO in the assay was 0.5%. Inhibition of pbGST by the GSK TCAMS compounds were determined by adding variable concentration of compounds (1, 10 and 50 μM) with a fixed P. berghei protein extracts concentration (0.65 mg/mL) in a total volume of 200 μL containing 1 mM CDNB and 100 mM potassium phosphate buffer (pH 6.5) at 25° C. The reaction was started by adding 1 mM GSH and activity was measured spectroscopically at 340 nm absorbance. The data obtained by varying compound concentration was analyzed using a column bar graph. Inhibition of pbGST by the GSK TCAMS compounds was done in duplicate. One GSK TCAMS compound, TCMDC-124132, was analyzed against the hGST in two independent experiments in triplicate (n=6). A statistical analysis was done using the GraphPad Prism software (Graph-Pad software, Inc., US, Mac Version 6). […]

[3] = molecular target: T1, human placenta GST (hGST) (Homo sapiens, UniProt P09211); assay: Inhibition of GST activity (CDNB/GSH, 340 nm) of human placenta GST; format: biochemical
T1 construct: the human placenta GST from Sigma-Aldrich® (Cat No. G8642); purchased Sigma-Aldrich G8642; host or cells: human placenta (tissue-derived)
Description: Glutathione S-transferase Activity in Blood Stage Parasites: The parasite extracts were prepared as the method described in the Protein for Enzymatic Activity. The enzymatic activity was determined spectroscopically using the chromogenic substrate 1-chloro-2,4-dinitrobenzene (CDNB) from Sigma-Aldrich®. The GST activity was assayed at 25° C. in P. berghei protein extracts by monitoring the increase in absorbance at 340 nm on the basis of the extinction coefficient for the product S-(2,4-dinitrophenyl) glutathione (ε340 nm=9.6 mM^−1 cm^−1). The absorbance was measured in a 96-well plate (UV flat bottom Microtiter®, from Thermo Scientific) using the SpectraMax® M3 Microplate Reader (Molecular Devices). […]
The compounds stock solutions were prepared in 100% DMSO. […] The half maximal inhibitory concentration (IC50) values were calculated using the non-linear regression function for sigmoidal dose-response (variable slope). Inhibition curves of pbGST was done in two independent experiments with one replicate each (n=2) whereas the inhibition curves of hGST was determined in three independent experiments in triplicate (n=9). […]
The GSK TCAMS compounds dilutions were prepared in DMSO and the final concentration of DMSO in the assay was 0.5%. […] The reaction was started by adding 1 mM GSH and activity was measured spectroscopically at 340 nm absorbance. […]

[4] = ring stage to mature schizont development, 24 hours, luciferase readout, three independent experiments

P. berghei GST (pbGST), sequence (A0A509AJX5 entry or part of it): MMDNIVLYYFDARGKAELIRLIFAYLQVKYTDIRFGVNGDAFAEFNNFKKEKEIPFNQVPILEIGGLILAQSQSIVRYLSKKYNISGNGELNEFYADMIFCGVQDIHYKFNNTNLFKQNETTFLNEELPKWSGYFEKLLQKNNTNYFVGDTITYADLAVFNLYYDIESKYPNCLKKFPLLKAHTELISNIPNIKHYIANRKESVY
T1 sequence (P09211 2-210 limits assumed): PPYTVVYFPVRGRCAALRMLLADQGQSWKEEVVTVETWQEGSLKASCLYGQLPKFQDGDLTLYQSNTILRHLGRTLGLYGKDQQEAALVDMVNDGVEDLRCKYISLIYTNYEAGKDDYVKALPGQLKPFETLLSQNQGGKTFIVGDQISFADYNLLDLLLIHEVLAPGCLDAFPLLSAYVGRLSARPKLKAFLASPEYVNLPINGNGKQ

SMILES	pEC50 (P. berghei blood stages [2]; [4])	inhibitory activity on pbGST (P. berghei GST (pbGST))	also measured
CCN(CC)CCCC(C)Nc1ccnc2cc(Cl)ccc12 (centres unmarked) [Chloroquine]	–	–	pEC50 (P. berghei blood stages [1]): 7.70
COc1ccc2nccc([C@@H](O)CN3CCC(NC(=O)c4cc5c(F)cc(F)cc5[nH]4)CC3)c2n1 [Compound 6]	5.83	No inhibitory activity	–
c1ccc2[nH]c(CN(Cc3nc4ccccc4[nH]3)Cc3nc4ccccc4[nH]3)nc2c1 [Compound 8]	5.94	tendency of inhibition	inhibitory activity on human placenta GST ([3]; at 50 μM and 100 μM, statistical difference at 100 μM, n=6): tendency of inhibition
Oc1ccc(CCNc2nc(NCc3ccccc3-c3ccc(C(F)(F)F)cc3)nc(N3CCNCC3)n2)cc1 [Compound 12]	5.52	–	–
CCCCCCSC[C@H](NC(=O)CC[C@H](N)C(=O)O)C(=O)NCC(=O)O [S-hexylglutathione, reference compound]	–	–	inhibition at 50 µM ([3]; 50 μM compound): 50%; pEC50 (P. berghei blood stages [2]; Plasmodium berghei, 24 h): 5.16; inhibition at 50 µM (P. berghei GST (pbGST); 50 μM compound): 50%
O=C1Nc2cccc3c2C1(CCCCN1CCC(c2cc4ccncc4[nH]2)CC1)CCC3 (centres unmarked) [TCMDC-141151/TCMDC-141221]	5.98	No inhibitory activity	–
COc1cc(/C=C/C(=O)CC(=O)/C=C/c2ccc(O)c(OC)c2)ccc1O [curcumin, reference compound]	–	–	pEC50 (P. berghei blood stages [2]; Plasmodium berghei, 24 h): 4.82
C=C(CC)C(=O)c1ccc(OCC(=O)O)c(Cl)c1Cl [ethacrynic acid, reference compound]	–	–	pEC50 (P. berghei blood stages [2]; Plasmodium berghei, ring stage to mature schizont development, 24 hours, luciferase readout, three independent experiments): 4.83
